Counter-ions that a name gives are not always drawn. Like-named read-outs stand apart in the source and are kept apart here.
Key:
GADD45a gene [1] = settings: published fragrance safety assessment; cited from earlier work
mammalian cell = assay: In vitro mammalian cell micronucleus test; assay type: cell-based; settings: overall outcome in current dataset
[2] = weight of evidence of all available in vitro and in vivo data
[3] = system: human peripheral lymphocytes; settings: cited from earlier work
mouse = settings: cited from earlier work
GADD45a gene [4] = assay: BlueScreen HC assay; settings: fragrance materials, TK6 cells
[5] = system: Salmonella typhimurium, Escherichia coli tester strains; assay: Bacterial reverse mutation test; assay type: cell-based; settings: overall outcome
[6] = system: Salmonella typhimurium, Escherichia coli tester strains; settings: cited from earlier work
L5178 TK +/− cell = settings: cited from earlier work
[7] = system: Chinese hamster V79 cells; settings: cited from earlier work
[8] = cited from earlier work
[9] = system: Chinese hamster lung, ovary, or fibroblast cells; settings: ref RIFM Database, cited from earlier work; for chromosomal aberration assay result: Chinese hamster lung, ovary, or fibroblast cells
[10] = system: reconstructed skin (EpiDerm™); settings: cited from earlier work
mice = settings: cited from earlier work

CCCCCCC(OCC)OCC [1,1-diethoxyheptane]
BlueScreen HC result (GADD45a gene [1]): negative

CC12CCCC(C)(CC1)C2=NO [1,5-dimethylbicyclo[3.2.1]octan-8-one-oxime]
in vitro MNT result (mammalian cell): positive
genotoxic potential conclusion (WoE) [2]: not genotoxic
in vitro micronucleus assay result ([3]; 3- and 24- h time points with and without metabolic activation): Positive
in vivo micronucleus test result (mouse): negative
BlueScreen HC result (GADD45a gene [4]): negative

CC(=O)C1CC(C)=CC(C)C1C (stereo not shown) [1-(3,5,6-trimethyl-3-cyclohexen-1-yl)ethan-1-one]
Ames assay result [5]: positive
Ames assay result ([6]; Escherichia coli strain WP2uvrA without metabolic activation): positive
Ames assay result, third confirmatory study ([6]; similar concentrations, E. coli WP2uvrA or TA102): no positive effects
genotoxic potential conclusion (WoE) [2]: unlikely to have genotoxic potential in vivo
in vitro micronucleus assay result [3]: negative
mammalian cell line mutagenicity study (HPRT) result (L5178 TK +/− cell): negative
BlueScreen HC result (GADD45a gene [4]): negative

CC(=CC#N)CCc1ccccc1 [3-methyl-5-phenylpent-2-enenitrile]
in vitro MNT result (mammalian cell): positive
genotoxic potential conclusion (WoE) [2]: not genotoxic
in vitro micronucleus assay result ([7]; 4-h time point with metabolic activation): Positive
in vivo micronucleus test result (mouse): negative
BlueScreen HC result (GADD45a gene [4]): negative

CC(C)C12CCC(C)(O)C1C2 (stereo not shown) [4-thujanol]
in vitro MNT result (mammalian cell): positive
in vitro micronucleus study result ([3]; 4-h time point, absence of metabolic activation): positive
in vivo micronucleus study result (mouse): negative
BlueScreen HC result (GADD45a gene [4]): negative

Cc1cccc2nccnc12 [5-methylquinoxaline]
in vitro MNT result (mammalian cell): positive
genotoxic potential conclusion (WoE) [2]: devoid of genotoxic activity in vivo
in vitro micronucleus study result ([3]; 4-h treatment): negative
in vitro micronucleus study result ([3]; without metabolic activation, 24-h treatment): positive
in vivo micronucleus assays result ([8]; two assays): negative
BlueScreen HC result (GADD45a gene [4]): negative

CC(C)C(=O)O [Isobutyric acid]
Ames test result [6]: negative

COc1ccc(COC=O)cc1 [anisyl formate]
in vitro micronucleus assay result [3]: negative
mammalian cell line mutagenicity study (MLA/HPRT) result (L5178 TK +/− cell): negative
BlueScreen HC result (GADD45a gene [4]): negative

N#C/C=C/c1ccccc1 [cinnamyl nitrile, Cinnamyl nitrile]
genotoxic potential conclusion (WoE) [2]: lack genotoxic potential in vivo
in vitro micronucleus result ([7]; Chinese hamster V79 cells): negative
chromosomal aberration assay result [9]: positive
BlueScreen HC result (GADD45a gene [4]): negative

COC1CC2CCC1(C)C2(C)C (stereo not shown) [isobornyl methyl ether]
in vitro MNT result (mammalian cell): positive
in vitro micronucleus confirmatory assay result ([3]; confirmatory assay, dose response not observed): increases only at the highest dose level
in vitro micronucleus study result ([3]; presence of metabolic activation, 4-h time point): positive
3D skin micronucleus study result [10]: negative
BlueScreen HC result (GADD45a gene [4]): negative

CC(C)CO [isobutyl alcohol]
in vivo micronucleus test result [8]: negative

COC(=O)CC(C)=O [methyl acetoacetate, Methyl acetoacetate]
genotoxic potential conclusion (WoE) [2]: lack genotoxic potential in vivo
in vitro micronucleus result ([3]; human lymphocytes): negative
chromosomal aberration assay result [9]: positive
BlueScreen HC result (GADD45a gene [4]): negative

COC(=O)c1ccccc1N [methyl anthranilate, Methyl anthranilate]
in vitro chromosomal aberration study result ([9]; Chinese hamster fibroblast cell line (B 241)): positive
chromosomal aberration assay result [9]: positive
2-year in vivo carcinogenicity study result (mice): did not show any carcinogenic effects
BlueScreen HC result (GADD45a gene [4]): negative

CC(=O)/C=C/C1C(C)=CCCC1(C)C (stereo not drawn) [α-ionone, α-Ionone]
genotoxic potential conclusion (WoE) [2]: lack genotoxic potential in vivo
in vitro micronucleus study result ([3]; human peripheral lymphocytes): negative
chromosomal aberration assay result [9]: positive
in vivo mouse micronucleus study result (mouse): negative
BlueScreen HC result (GADD45a gene [4]): negative
